From patent US20090233965A1, “Alkyl Esters Of Cyclic Amino Alcohols With Muscarinic M3 Receptor Antagonist Activity, Useful For Treating E.G. Chronic Bronchial Obstruction, Asthma And Overactive Bladder” (priority 2006, published 2009)
pIC50: −log10 of the molar value. Read-outs that look alike come from different tables or passages of the source.

Biological target: human muscarinic acetylcholine M3 receptor (M3-ACh) (Homo sapiens, UniProt P20309)
Experiment: M3 Receptor Activity Assay: competition binding of [3H]N-methyl scopolamine, SPA format
Settings: for IC50: competition binding of [3H]NMS at 0.2 nM to CHO-K1 cell membranes expressing human M3 receptor, 16 hours at room temperature, read-out: pIC50 (converted)
Procedure: The assay was conducted in a final volume of 200 μL, in the presence of 1% (v/v) dimethyl sulphoxide (DMSO). Total binding of [^3H]NMS was determined in the absence of competing compound and non-specific binding of [3H]NMS was determined in the presence of 1 μM atropine. The plates were incubated for 16 hours at room temperature and then read on Wallac Microbeta™ using a normalised ^3H protocol.

Sequence of human muscarinic acetylcholine M3 receptor (M3-ACh) (P20309 whole entry): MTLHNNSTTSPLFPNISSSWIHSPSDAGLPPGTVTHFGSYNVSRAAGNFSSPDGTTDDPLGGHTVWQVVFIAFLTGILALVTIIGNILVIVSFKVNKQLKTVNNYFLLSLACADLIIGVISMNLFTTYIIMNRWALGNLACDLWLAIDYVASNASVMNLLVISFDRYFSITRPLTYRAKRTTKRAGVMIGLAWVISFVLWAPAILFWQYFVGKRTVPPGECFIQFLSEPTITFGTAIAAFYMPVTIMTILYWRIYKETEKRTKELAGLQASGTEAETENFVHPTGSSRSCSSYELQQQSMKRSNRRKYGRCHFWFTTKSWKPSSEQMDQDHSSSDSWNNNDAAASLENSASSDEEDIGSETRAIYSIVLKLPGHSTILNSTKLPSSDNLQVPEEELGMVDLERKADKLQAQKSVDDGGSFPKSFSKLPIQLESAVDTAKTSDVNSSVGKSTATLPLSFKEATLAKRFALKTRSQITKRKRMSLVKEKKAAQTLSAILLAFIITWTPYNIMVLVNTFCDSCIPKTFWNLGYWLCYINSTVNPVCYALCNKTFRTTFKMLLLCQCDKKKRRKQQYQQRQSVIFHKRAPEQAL

SMILES	pIC50	IC50 [pM]
CC(C(=O)OC1CC[N+](C)(C)CC1)(c1ccccc1)C1CC1 (stereo not drawn) [Example 3, 4-[(2-Cyclopropyl-2-phenylpropanoyl)oxy]-1,1-dimethylpiperidinium iodide]	9.40	–
Cc1ccc(C(C)(C(=O)OC2CC[N+](C)(C)CC2)C2CCCC2)s1 (stereo not drawn) [Example 9, 4-{[2-Cyclopentyl-2-(5-methyl-2-thienyl)propanoyl]oxy}-1,1-dimethylpiperidinium iodide]	–	79.4
CC(C(=O)OC1CC[N+](C)(C)CC1)(c1ccc(Cl)cc1)C1CCCC1 (stereo not drawn) [Example 19, 4-{[2-(4-Chlorophenyl)-2-cyclopentylpropanoyl]oxy}-1,1-dimethylpiperidinium iodide]	–	200
